Test results published in patent US12146004B2, “Polymyxin compounds and uses thereof” (priority 2014, dated 2024).
Values after ≈ are worked out from the molar mass of the structure shown. Like-named read-outs stand apart in the source and are kept apart here. Bridge positions count the residues as written; N and C are the ends. Square brackets hold non-standard residues; d marks the D form. Peptide text beside a SMILES is read from it. * marks the point of attachment. ξ: configuration not given here. X14 = CC(C)c1ccc(CO[C@@H](CCN)C(=O)*)cc1; X23 = NCC[C@H](OCc1ccccc1)C(=O)*; dCha = N[C@H](CC1CCCCC1)C(=O)O; Thr(3ξ) = CC(O)[C@H](N)C(=O)O; X28 = NCCC(C(=O)*)c1ccccc1Cl; Dab = NCC[C@H](N)C(=O)O; Dap = NC[C@H](N)C(=O)O

Legend:
Assay type in all cases: cell-based
Acinetobacter baumannii = test system: Acinetobacter baumannii
Procedure: (§1) To evaluate the potency and spectrum of the compounds, susceptibility testing was performed against up to nine strains of each of the Gram negative pathogens, Escherichia coli, Pseudomonas aeruginosa, Klebsiella pneumoniae and Acinetobacter baumannii.
(§2) The values in Table 2 are MIC (μg/mL) against strains of E. coli, K. pneumoniae, P. aeruginosa and A. baumanii, including strains which show elevated MICs to Polymyxin.
(§3) The values in Table 2A are MIC (μg/mL).
(§4) The in vitro activity of compounds 26 and C7 (FADDI-02) against resistant bacterial strains was compared. The resistant strains included including Escherichia coli, Pseudomonas aeruginosa, Klebsiella pneumoniae and Acinetobacter baumannii strains. The data is provided in Table 2C, where the strains are identified. The values in Table 2 are MIC (μg/mL).

Escherichia coli = test system: Escherichia coli
Procedure: as §1, §2, §3, §4

Klebsiella pneumoniae = test system: Klebsiella pneumoniae
Procedure: as §1, §2, §3, §4

Pseudomonas aeruginosa = test system: Pseudomonas aeruginosa
Procedure: as §1, §2, §3, §4

Row | MIC A. baumanii 053 (Acinetobacter baumannii) [mg/L] | MIC A. baumanii 056 (Acinetobacter baumannii) [mg/L] | MIC A. baumanii ATCC BAA-747 (Acinetobacter baumannii) [mg/L] | MIC E. coli 058 (Escherichia coli) [mg/L] | MIC E. coli 061 (Escherichia coli) [mg/L] | MIC E. coli ATCC 25922 (Escherichia coli) [mg/L] | MIC K. pneumoniae 063 (Klebsiella pneumoniae) [mg/L] | MIC K. pneumoniae 065 (Klebsiella pneumoniae) [mg/L] | MIC P. aeruginosa 068 (Pseudomonas aeruginosa) [mg/L] | MIC P. aeruginosa 070 (Pseudomonas aeruginosa) [mg/L] | MIC P. aeruginosa ATCC 27853 (Pseudomonas aeruginosa) [mg/L] | MIC A. baumanii NCTC 13424 (Acinetobacter baumannii) [mg/L] | MIC E. coli NCTC 9001 (Escherichia coli) [mg/L] | MIC K. pneumoniae ATCC 13882 (Klebsiella pneumoniae) [mg/L] | MIC P. aeruginosa CCUG 59347 (Pseudomonas aeruginosa) [mg/L] | Structure (SMILES) | further results
1 | 64 (≈ 53.9 µM) | 32 (≈ 26.9 µM) | 0.25 (≈ 0.21 µM) | 2 (≈ 1.68 µM) | 16 (≈ 13.5 µM) | 0.25 (≈ 0.21 µM) | 64 (≈ 53.9 µM) | 0.5 (≈ 0.421 µM) | 4 (≈ 3.37 µM) | 4 (≈ 3.37 µM) | 0.25 (≈ 0.21 µM) | 0.125 (≈ 0.105 µM) | 0.25 (≈ 0.21 µM) | 0.25 (≈ 0.21 µM) | 0.5 (≈ 0.421 µM) | CC(C)C[C@@H]1NC(=O)[C@@H](CC2CCCCC2)NC(=O)[C@H](CCN)NC(=O)[C@@H](NC(=O)[C@H](CN)NC(=O)[C@@H](NC(=O)[C@H](CCN)OCc2ccc(C(C)C)cc2)[C@@H](C)O)CCNC(=O)[C@H]([C@@H](C)O)NC(=O)[C@H](CCN)NC(=O)[C@H](CCN)NC1=O [Example 88, (S)-4-amino-2-((4-isopropylbenzyl)oxy)butanoyl L-Thr-L-Dap-polymyxin [D-cyclohexylalanine-6]heptapeptide] (X14-T[Dap][Dab][Dab][dCha]L[Dab][Dab]T; lactam 3-C) | –
2 | 64 (≈ 54.2 µM) | 16 (≈ 13.5 µM) | 0.125 (≈ 0.106 µM) | 2 (≈ 1.69 µM) | 8 (≈ 6.77 µM) | 0.06 (≈ 0.0508 µM) | 32 (≈ 27.1 µM) | 2 (≈ 1.69 µM) | 4 (≈ 3.39 µM) | 8 (≈ 6.77 µM) | 0.125 (≈ 0.106 µM) | 0.03 (≈ 0.0254 µM) | 0.015 (≈ 0.0127 µM) | 0.125 (≈ 0.106 µM) | 0.125 (≈ 0.106 µM) | CC(C)C[C@@H]1NC(=O)[C@@H](CC2CCCCC2)NC(=O)[C@H](CCN)NC(=O)[C@@H](NC(=O)[C@H](CN)NC(=O)[C@@H](NC(=O)C(CCN)OCc2cccc(Cl)c2)[C@@H](C)O)CCNC(=O)[C@H]([C@@H](C)O)NC(=O)[C@H](CCN)NC(=O)[C@H](CCN)NC1=O (single isomer, unassigned; isomer 1) [Example 82, 4-amino-2-((3-chlorobenzyl)oxy) butanoyl L-Thr-L-Dap-polymyxin [D-cyclohexylalanine-6]heptapeptide. Isomer 1] | –

The next lines start with the compound.

Row | Structure (SMILES) | MIC A. baumanii 053 (Acinetobacter baumannii) [mg/L] | MIC A. baumanii 056 (Acinetobacter baumannii) [mg/L] | MIC A. baumanii ATCC BAA-747 (Acinetobacter baumannii) [mg/L] | MIC E. coli 058 (Escherichia coli) [mg/L] | MIC E. coli 061 (Escherichia coli) [mg/L] | MIC E. coli ATCC 25922 (Escherichia coli) [mg/L] | MIC K. pneumoniae 063 (Klebsiella pneumoniae) [mg/L] | MIC K. pneumoniae 065 (Klebsiella pneumoniae) [mg/L] | MIC P. aeruginosa 068 (Pseudomonas aeruginosa) [mg/L] | MIC P. aeruginosa 070 (Pseudomonas aeruginosa) [mg/L] | MIC P. aeruginosa ATCC 27853 (Pseudomonas aeruginosa) [mg/L] | MIC A. baumanii NCTC 13424 (Acinetobacter baumannii) [mg/L] | MIC E. coli NCTC 9001 (Escherichia coli) [mg/L] | MIC K. pneumoniae ATCC 13882 (Klebsiella pneumoniae) [mg/L] | MIC P. aeruginosa CCUG 59347 (Pseudomonas aeruginosa) [mg/L] | further results
3 | CCCCCCCCC1CNCC1C(=O)N[C@H](C(=O)N[C@@H](CCN)C(=O)N[C@H]1CCNC(=O)[C@H]([C@@H](C)O)NC(=O)[C@H](CCN)NC(=O)[C@H](CCN)NC(=O)[C@H](CC(C)C)NC(=O)[C@@H](Cc2ccccc2-c2ccccc2)NC(=O)[C@H](CCN)NC1=O)C(C)O (single isomer, unassigned; isomer 1) [Example 9, trans-4-octylpyrrolidine-3-carbonyl polymyxin [D-(2-phenyl)Phe]-6] nonapeptide. Isomer 1] | 64 (≈ 51.3 µM) | 32 (≈ 25.6 µM) | 1 (≈ 0.801 µM) | 2 (≈ 1.6 µM) | 8 (≈ 6.41 µM) | 1 (≈ 0.801 µM) | >64 | 8 (≈ 6.41 µM) | 2 (≈ 1.6 µM) | 2 (≈ 1.6 µM) | 1 (≈ 0.801 µM) | – | – | – | – | MIC E. coli 059 (Escherichia coli): 2 mg/L (≈ 1.6 µM); MIC E. coli 060 (Escherichia coli): 4 mg/L (≈ 3.2 µM); MIC K. pneumoniae 062 (Klebsiella pneumoniae): 64 mg/L (≈ 51.3 µM); MIC K. pneumoniae 064 (Klebsiella pneumoniae): 64 mg/L (≈ 51.3 µM); MIC K. pneumoniae 066 (Klebsiella pneumoniae): 32 mg/L (≈ 25.6 µM); MIC K. pneumoniae 067 (Klebsiella pneumoniae): >64 mg/L; MIC K. pneumoniae ATCC 4352 (Klebsiella pneumoniae): 0.5 mg/L (≈ 0.4 µM)
4 | CC(C)C[C@@H]1NC(=O)[C@@H](CC2CCCCC2)NC(=O)[C@H](CCN)NC(=O)[C@@H](NC(=O)[C@H](CCN)NC(=O)[C@@H](NC(=O)C(CCN)c2ccccc2Cl)[C@@H](C)O)CCNC(=O)[C@H]([C@@H](C)O)NC(=O)[C@H](CCN)NC(=O)[C@H](CCN)NC1=O (stereo partly drawn) [Example 77, 4-amino-2-(2-chlorophenyl) butanoyl polymyxin [D-cyclohexylalanine]-6 nonapeptide] (X28-T[Dab][Dab][Dab][dCha]L[Dab][Dab]T; lactam 3-C) | – | – | 1 (≈ 0.858 µM) | 8 (≈ 6.87 µM) | – | 0.25 (≈ 0.215 µM) | – | 8 (≈ 6.87 µM) | – | – | 0.5 (≈ 0.429 µM) | 0.5 (≈ 0.429 µM) | – | 0.5 (≈ 0.429 µM) | 0.5 (≈ 0.429 µM) | –
5 | CC(C)C[C@@H]1NC(=O)[C@@H](CC2CCCCC2)NC(=O)[C@H](CCN)NC(=O)[C@@H](NC(=O)[C@H](CCN)NC(=O)[C@@H](NC(=O)CC(CN)C2CCCCC2)[C@@H](C)O)CCNC(=O)[C@H]([C@@H](C)O)NC(=O)[C@H](CCN)NC(=O)[C@H](CCN)NC1=O (single isomer, unassigned; isomer 1) [Example 86, 4-amino-3-cyclohexylbutanoyl polymyxin [D-cyclohexylalanine-6]nonapeptide. Isomer 1] | – | – | – | – | – | – | – | – | – | – | – | – | – | – | – | MIC A. baumanii 053 (Acinetobacter baumannii; strain 053): >64 mg/L; MIC A. baumanii 056 (Acinetobacter baumannii; strain 056): 64 mg/L (≈ 56.3 µM); MIC A. baumanii ATCC BAA-747 (Acinetobacter baumannii; strain ATCC BAA-747): 0.125 mg/L (≈ 0.11 µM); MIC A. baumanii NCTC 13424 (Acinetobacter baumannii; strain NCTC 13424): 0.125 mg/L (≈ 0.11 µM); MIC E. coli 058 (Escherichia coli; strain 058): 8 mg/L (≈ 7.04 µM); MIC E. coli 061 (Escherichia coli; strain 061): 32 mg/L (≈ 28.2 µM); MIC E. coli ATCC 25922 (Escherichia coli; strain ATCC 25922): 0.125 mg/L (≈ 0.11 µM); MIC E. coli NCTC 9001 (Escherichia coli; strain NCTC 9001): 0.06 mg/L (≈ 0.0528 µM); MIC K. pneumoniae 063 (Klebsiella pneumoniae; strain 063): >64 mg/L; MIC K. pneumoniae 065 (Klebsiella pneumoniae; strain 065): 8 mg/L (≈ 7.04 µM); MIC K. pneumoniae ATCC 13882 (Klebsiella pneumoniae; strain ATCC 13882): 0.5 mg/L (≈ 0.44 µM); MIC P. aeruginosa 070 (Pseudomonas aeruginosa; strain 070): 8 mg/L (≈ 7.04 µM); MIC P. aeruginosa ATCC 27853 (Pseudomonas aeruginosa; strain ATCC 27853): 0.25 mg/L (≈ 0.22 µM); MIC P. aeruginosa CCUG 59347 (Pseudomonas aeruginosa; strain CCUG 59347): 0.5 mg/L (≈ 0.44 µM)
6 | CC(C)C[C@@H]1NC(=O)[C@@H](CC2CCCCC2)NC(=O)[C@H](CCN)NC(=O)[C@@H](NC(=O)[C@H](CN)NC(=O)[C@@H](NC(=O)[C@H](CCN)OCc2ccccc2)C(C)O)CCNC(=O)[C@H]([C@@H](C)O)NC(=O)[C@H](CCN)NC(=O)[C@H](CCN)NC1=O (stereo partly drawn) [Example 48, (S)-4-amino-2-(benzyloxy) butanoyl L-Thr-L-Dap-polymyxin [D-cyclohexylalanine]-6 heptapeptide.] (X23-[Thr(3ξ)][Dap][Dab][Dab][dCha]L[Dab][Dab]T; lactam 3-C) | >64 | 32 (≈ 27.9 µM) | 0.125 (≈ 0.109 µM) | 4 (≈ 3.49 µM) | 32 (≈ 27.9 µM) | 0.125 (≈ 0.109 µM) | 64 (≈ 55.8 µM) | 5 (≈ 4.36 µM) | 8 (≈ 6.98 µM) | 16 (≈ 14 µM) | 0.25 (≈ 0.218 µM) | 0.25 (≈ 0.218 µM) | – | 0.125 (≈ 0.109 µM) | 0.25 (≈ 0.218 µM) | –
